Results: patent US20240417404A1, “CRYSTALLINE FORMS OF N-[4-[4-(4-MORPHOLINYL)-7H-PYRROLO[2,3-d]PYRIMIDIN-6-YL]PHENYL]-4-[[3(R)-[(1-OXO-2-PROPEN-1-YL)AMINO]-1-[sequence]]METHYL]-2-PYRIDINECARBOXAMIDE AS IRREVERSIBLE INHIBITORS OF MENIN-MLL INTERACTION” (BIOMEA FUSION, INC., priority 2023, published 2024)
“Also recorded” adds a separate entry of the source. Where two headings read alike, the source gives them in different places.

Columns and labels:
[1] = Clinical study (SAD, food effect, MAD cohorts) in healthy and type 2 diabetes mellitus subjects; type: in vivo, human; conditions: human, in vivo, oral; for AUC: read-out: Exposure: AUC; for Cmax: read-out: Exposure: Cmax
Description: In Experimental Phase 1 (SAD cohorts), 40 healthy adult subjects were randomized into 4 dose escalating cohorts of 10. In each cohort, subjects were randomized at 7:3 (active and placebo) in sequential order. Each cohort was composed of 2 sentinel subjects randomized at 1:1 (active and placebo), followed by 8 additional subjects randomized at 3:1 (active and placebo). Doses were 100 mg, 200 mg, 400 mg, and 600 mg.
In Experimental Phase 1 (3-period crossover, food effect study), each cohort of 12 healthy adult subjects was randomized at 1:1:1:1:1:1 in a 3-period crossover study with 6 treatment sequences.
In Experimental Phase 2 (MAD cohorts), 1 cohort of 16 healthy adult subjects was randomized at 3:1 (active and placebo), and 7 cohorts of type 2 diabetes mellitus adult subjects were randomized at 5:1 (active and placebo) to obtain safety and efficacy data to identify the potential optimal biological dose (OBD) and a recommended Phase 2 dose (RP2D). Doses were 100 mg, 200 mg, 400 mg, and 600 mg.

[2] = biological target: T1, Menin protein in DLBCL cell line TOLEDO (Homo sapiens, UniProt O00255); test: Menin protein expression in TOLEDO cells (Wes automated western blotting); type: cell-based; conditions: 1 μM, fourteen hours, normalized to GAPDH, referenced to DMSO
T1 construct: endogenous in cells; host or cells: TOLEDO (DLBCL cell line)
Description: (§1) DLBCL cell line TOLEDO was cultured in the presence of Compound A or clinical reversible menin inhibitors for six and fourteen hours. Menin protein expression was reduced up to 60% at 1 μM by Compound A after fourteen hours compared to clinical reversible inhibitors at <20% at similar concentrations. Menin protein expression was measured by the Wes system and analyzed using the Compass software (automated western blotting, Protein Simple). Signal was normalized to GAPDH and referenced to DMSO control (FIG. 36E). DLBCL and MM cell lines were cultured with Compound A, bortezomib (PS-341), or DMSO for four days and cell proliferation was measured by Cell Titer Glo. Ex vivo studies of DLBCL and MM models were conducted by measurement of cell proliferation (Cell Titer Glo) after six days of treatment with Compound A, PS-341, or DMSO control.

[3] = test system: DHL, THL, and DEL DLBCL cell lines; test: DLBCL cell line panel proliferation (Cell Titer Glo, four days); type: cell-based
Description: (§2) Compound A was tested against a THL cell line (VAL), and a DEL cell line (U2932). An expanded panel of DHL cell lines were tested for sensitivity to Compound A. Ex vivo patient samples of THL and MYC-amplified DLBCL were tested with Compound A. Sensitivity of THL and MYC-driven DLBCL in both in vitro and ex vivo models were compared with clinical reversible menin inhibitors. Compound A was tested against a panel of MM cell lines and ex vivo MM patient samples of p53del, 13qdel, and relapsed/refractory cases.
as §1

[4] = test system: patient-derived THL and MYC-amplified DLBCL PDX samples; test: Ex vivo DLBCL patient-derived PDX samples (Cell Titer Glo, six days); type: cell-based, human; conditions: THL/R-CHOP-refractory and MYC amplification/R-EPOCH refractory clinical profiles
Description: as §2, §1

T1 sequence (O00255 whole entry): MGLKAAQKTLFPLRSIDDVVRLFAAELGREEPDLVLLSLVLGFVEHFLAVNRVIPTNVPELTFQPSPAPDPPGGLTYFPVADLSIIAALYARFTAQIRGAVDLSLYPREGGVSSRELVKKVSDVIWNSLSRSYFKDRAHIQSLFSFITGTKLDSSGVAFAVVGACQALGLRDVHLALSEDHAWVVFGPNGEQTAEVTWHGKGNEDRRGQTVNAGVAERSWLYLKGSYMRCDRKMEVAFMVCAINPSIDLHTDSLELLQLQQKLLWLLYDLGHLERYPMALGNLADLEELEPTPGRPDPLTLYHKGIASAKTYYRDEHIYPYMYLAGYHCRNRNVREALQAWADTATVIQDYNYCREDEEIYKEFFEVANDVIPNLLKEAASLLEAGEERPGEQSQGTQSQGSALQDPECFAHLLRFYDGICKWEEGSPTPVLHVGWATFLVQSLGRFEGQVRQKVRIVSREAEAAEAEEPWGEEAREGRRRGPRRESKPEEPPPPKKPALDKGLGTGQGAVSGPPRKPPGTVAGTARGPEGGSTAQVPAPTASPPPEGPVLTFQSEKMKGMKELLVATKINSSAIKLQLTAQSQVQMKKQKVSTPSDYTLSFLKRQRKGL

C=CC(=O)N[C@@H]1CCCN(Cc2ccnc(C(=O)Nc3ccc(-c4cc5c(N6CCOCC6)ncnc5[nH]4)cc3)c2)C1 [Compound A, N-[4-[4-(4-morpholinyl)-7H-pyrrolo[2,3-d]pyrimidin-6-yl]phenyl]-4-[[3(R)-[(1-oxo-2-propen-1-yl)amino]-1-piperidinyl]methyl]-2-pyridinecarboxamide]
AUC ([1]; Cohort 2 (taken with food)): 0.0843 µg·h/mL
Cmax ([1]; Cohort 2 (taken with food)): 0.0348 µg/mL
AUC ([1]; Cohort 3 (taken without food)): 0.224 µg·h/mL
Cmax ([1]; Cohort 3 (taken without food)): 0.0942 µg/mL
reduction of Menin protein expression [2]: up to 60%
cell lethality ([3]; DHL, THL, and DEL DLBCL cell lines): > 90%
growth inhibition of THL and DEL cell line models ([3]; VAL, U2932): complete growth inhibition
growth inhibition of ex vivo DLBCL patient samples [4]: complete growth inhibition; also recorded: highly effective
